In publication PMC3771683 (Analytical chemistry, 2013):

How the values were obtained:
[1] = tested on: Mapk, Akt, and Rps6ka1 kinases; format: cell-based; conditions: MCF 10A cells treated with EGF or lapatinib vs DMSO; Western blotting and KAYAK
Tp53rk = target: T1, Tp53rk (Homo sapiens, UniProt Q96S44); test: AAP protein-level capture with TMT, staurosporine competition in HeLa lysate; format: binding
T1 sequence (Q96S44 1-253): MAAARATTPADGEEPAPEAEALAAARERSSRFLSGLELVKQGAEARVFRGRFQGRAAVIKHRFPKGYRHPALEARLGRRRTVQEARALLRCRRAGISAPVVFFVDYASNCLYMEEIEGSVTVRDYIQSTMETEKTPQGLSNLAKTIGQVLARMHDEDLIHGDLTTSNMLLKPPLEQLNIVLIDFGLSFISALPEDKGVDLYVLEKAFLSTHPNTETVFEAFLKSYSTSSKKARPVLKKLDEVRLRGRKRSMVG

Compound | activation of Mapk, Akt, and Rps6ka1 kinases [1] | IC50 (Tp53rk) [µM]
CS(=O)(=O)CCNCc1ccc(-c2ccc3ncnc(Nc4ccc(OCc5cccc(F)c5)c(Cl)c4)c3c2)o1 [lapatinib] | inhibition when lapatinib was present | 
CN[C@@H]1C[C@H]2O[C@@](C)([C@@H]1OC)n1c3ccccc3c3c4c(c5c6ccccc6n2c5c31)C(=O)NC4 [staurosporine] |  | 73
EGF: stimulates EGFR and numerous downstream kinases | substantial activation | 
